The record followed here is US10227323B2, “Glucosylceramide synthase inhibitors for the treatment of diseases” (BIOMARIN PHARMACEUTICAL INC., priority 2013, dated 2019).

One experiment addresses T1, GCS (Canis lupus familiaris, UniProt A0A8I3MXG6).
T1 sequence (A0A8I3MXG6 1-394): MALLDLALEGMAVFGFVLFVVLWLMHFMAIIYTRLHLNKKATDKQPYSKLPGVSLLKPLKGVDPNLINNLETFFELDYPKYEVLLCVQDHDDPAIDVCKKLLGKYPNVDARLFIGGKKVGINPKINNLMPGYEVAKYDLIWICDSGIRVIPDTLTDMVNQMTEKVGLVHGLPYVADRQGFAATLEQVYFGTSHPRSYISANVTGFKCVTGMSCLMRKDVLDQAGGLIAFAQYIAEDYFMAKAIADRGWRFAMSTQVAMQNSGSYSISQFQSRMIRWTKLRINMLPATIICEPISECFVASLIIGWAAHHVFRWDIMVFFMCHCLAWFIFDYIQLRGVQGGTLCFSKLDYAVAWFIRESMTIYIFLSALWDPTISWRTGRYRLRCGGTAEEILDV
In words: Assay 1: GCS Enzymatic Assay (MDCK cell lysate, C6-NBD-Ceramide, LC/MS). It counts as biochemical, canine. The settings on record: Table 2; data marked by *. In short, it runs like this:
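LC/MS/MS measurement of glucosylceramide and NBD-ceramide after a 1 h, 37 °C reaction with 100 μM UDP-glucose and 10 μM C6-NBD-ceramide gave IC50s or percent inhibition.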
With `Cn1ncc2ccc(C(=O)C(=O)N[C@H](CN3CCCC3)[C@H](O)c3cc(F)c4c(c3)OCCO4)cc21` [Compound 245, N-((1R,2R)-1-(8-fluoro-2,3-dihydrobenzo[b][1,4]dioxin-6-yl)-1-hydroxy-3-(pyrrolidin-1-yl)propan-2-yl)-2-(1-methyl-1H-indazol-6-yl)-2-oxoacetamide], the “% inhibition generated from Assay 1” value was “A* (the compound had a % inhibition of a percent inhibition of greater than or equal to about 50%)”.

As for `O=C(N[C@H](CN1CCCC1)[C@H](O)c1ccc(OC2CC2)c(Cl)c1)C(F)(F)c1ccc(-c2ccc(F)cc2)nc1` [Compound 247, N-((1R,2R)-1-(3-chloro-4-cyclopropoxyphenyl)-1-hydroxy-3-(pyrrolidin-1-yl)propan-2-yl)-2,2-difluoro-2-(6-(4-fluorophenyl)pyridin-3-yl)acetamide], the “% inhibition generated from Assay 1” value was “A* (the compound had a % inhibition of a percent inhibition of greater than or equal to about 50%)”.

In the case of `O=C(N[C@H](CN1CCCC1)[C@H](O)c1ccc2c(c1)OCCO2)C(=O)N1CCN(c2ccc(F)cc2)CC1` [Compound 252, N-((1R,2R)-1-(2,3-dihydrobenzo[b][1,4]dioxin-6-yl)-1-hydroxy-3-(pyrrolidin-1-yl)propan-2-yl)-2-(4-(4-fluorophenyl)piperazin-1-yl)-2-oxoacetamide], the “% inhibition generated from Assay 1” value was “A* (the compound had a % inhibition of a percent inhibition of greater than or equal to about 50%)”.

The experiment is the same for the next values; noted with them: Table 2; data without asterisk; read-out: IC50 (nM) generated from Assay 1.
For orientation: IC50 means the concentration that inhibits the measured activity by half. `O=C(N[C@H](CN1CCCC1)[C@H](O)c1ccc(OC2CC2)c(Cl)c1)C(=O)c1ccc(Oc2ccc(F)cc2)cc1` [Compound 241, N-((1R,2R)-1-(3-chloro-4-cyclopropoxyphenyl)-1-hydroxy-3-(pyrrolidin-1-yl)propan-2-yl)-2-(4-(4-fluorophenoxy)phenyl)-2-oxoacetamide]: the half-maximal inhibitory concentration (IC50) was less than 50 nM.

For `O=C(N[C@H](CN1CCCC1)[C@H](O)c1ccc(OC2CC2)c(Cl)c1)C(=O)c1cc2ccc(Cl)cc2s1` [Compound 242, N-((1R,2R)-1-(3-chloro-4-cyclopropoxyphenyl)-1-hydroxy-3-(pyrrolidin-1-yl)propan-2-yl)-2-(6-chlorobenzo[b]thiophen-2-yl)-2-oxoacetamide], the IC50 was less than 50 nM.

Take `Cn1ncc2ccc(-c3ccc(C(=O)C(=O)N[C@H](CN4CCCC4)[C@H](O)c4ccc(OC5CC5)c(Cl)c4)cc3)cc21` [Compound 243, N-((1R,2R)-1-(3-chloro-4-cyclopropoxyphenyl)-1-hydroxy-3-(pyrrolidin-1-yl)propan-2-yl)-2-(4-(1-methyl-1H-indazol-6-yl)phenyl)-2-oxoacetamide]: the IC50 was less than 50 nM.

As to `Cn1ncc2ccc(C(=O)C(=O)N[C@H](CN3CCCC3)[C@H](O)c3ccc(OC4CC4)c(Cl)c3)cc21` [Compound 244, N-((1R,2R)-1-(3-chloro-4-cyclopropoxyphenyl)-1-hydroxy-3-(pyrrolidin-1-yl)propan-2-yl)-2-(1-methyl-1H-indazol-6-yl)-2-oxoacetamide], the IC50 was less than 50 nM.

As to `Cn1ncc2ccc(-c3ccc(C(=O)C(=O)N[C@H](CN4CCCC4)[C@H](O)c4cc(F)c5c(c4)OCCO5)cc3)cc21` [Compound 246, N-((1R,2R)-1-(8-fluoro-2,3-dihydrobenzo[b][1,4]dioxin-6-yl)-1-hydroxy-3-(pyrrolidin-1-yl)propan-2-yl)-2-(4-(1-methyl-1H-indazol-6-yl)phenyl)-2-oxoacetamide], the IC50 is less than 50 nM.

As to `O=C(N[C@H](CN1CCC1)[C@H](O)c1cc(F)c2c(c1)OCCO2)C(=O)c1cccc(Oc2ccc(F)cc2)c1` [Compound 248, N-((1R,2R)-3-(azetidin-1-yl)-1-(8-fluoro-2,3-dihydrobenzo[b][1,4]dioxin-6-yl)-1-hydroxypropan-2-yl)-2-(3-(4-fluorophenoxy)phenyl)-2-oxoacetamide], the IC50 is less than 50 nM.

With `O=C(N[C@H](CN1CCCC1)[C@H](O)c1ccc(OC2CC2)c(Cl)c1)C(=O)c1cccc(Oc2ccc(F)cc2)c1` [Compound 249, N-((1R,2R)-1-(3-chloro-4-cyclopropoxyphenyl)-1-hydroxy-3-(pyrrolidin-1-yl)propan-2-yl)-2-(3-(4-fluorophenoxy)phenyl)-2-oxoacetamide], the IC50 is less than 50 nM.

With `O=C(N[C@H](CN1CCCC1)[C@H](O)c1cc(F)c2c(c1)OCCO2)C(=O)c1cccc(-c2ccc(F)cc2)c1` [Compound 250, N-((1R,2R)-1-(8-fluoro-2,3-dihydrobenzo[b][1,4]dioxin-6-yl)-1-hydroxy-3-(pyrrolidin-1-yl)propan-2-yl)-2-(4′-fluoro-[1,1′-biphenyl]-3-yl)-2-oxoacetamide], the IC50 was less than 50 nM.

Take `O=C(N[C@H](CN1CCCC1)[C@H](O)c1ccc(OC2CC2)c(Cl)c1)C(=O)c1cccc(-c2ccc(F)cc2)c1` [Compound 251, N-((1R,2R)-1-(3-chloro-4-cyclopropoxyphenyl)-1-hydroxy-3-(pyrrolidin-1-yl)propan-2-yl)-2-(4′-fluoro-[1,1′-biphenyl]-3-yl)-2-oxoacetamide]: the IC50 was less than 50 nM.

For `O=C(N[C@H](CN1CCC1)[C@H](O)c1ccc(OC2CC2)c(Cl)c1)C(=O)c1ccc(-c2ccc(F)cc2)cc1` [Compound 253, N-((1R,2R)-3-(azetidin-1-yl)-1-(3-chloro-4-cyclopropoxyphenyl)-1-hydroxypropan-2-yl)-2-(4′-fluoro-[1,1′-biphenyl]-4-yl)-2-oxoacetamide], the IC50 was less than 50 nM.

As for `O=C(N[C@H](CN1CCCC1)[C@H](O)c1cc(F)c2c(c1)OCCO2)C(=O)N1CCN(c2ccc(F)cc2)CC1` [Compound 254, N-((1R,2R)-1-(8-fluoro-2,3-dihydrobenzo[b][1,4]dioxin-6-yl)-1-hydroxy-3-(pyrrolidin-1-yl)propan-2-yl)-2-(4-(4-fluorophenyl)piperazin-1-yl)-2-oxoacetamide], the IC50 is less than 50 nM.

Turning to `CC(C)(C)c1ccc(-c2ccc(C(=O)C(=O)N[C@H](CN3CCCC3)[C@H](O)c3ccc(OC4CC4)c(Cl)c3)cc2)cc1` [Compound 255, 2-(4′-(tert-butyl)-[1,1′-biphenyl]-4-yl)-N-((1R,2R)-1-(3-chloro-4-cyclopropoxyphenyl)-1-hydroxy-3-(pyrrolidin-1-yl)propan-2-yl)-2-oxoacetamide], the IC50 was less than 50 nM.

Turning to `CC(C)n1ncc2ccc(-c3ccc(C(=O)C(=O)N[C@H](CN4CCCC4)[C@H](O)c4ccc(OC5CC5)c(Cl)c4)cc3)cc21` [Compound 256, N-((1R,2R)-1-(3-chloro-4-cyclopropoxyphenyl)-1-hydroxy-3-(pyrrolidin-1-yl)propan-2-yl)-2-(4-(1-isopropyl-1H-indazol-6-yl)phenyl)-2-oxoacetamide], the IC50 is less than 50 nM.

Consider `CC(C)n1cc2ccc(-c3ccc(C(=O)C(=O)N[C@H](CN4CCCC4)[C@H](O)c4ccc(OC5CC5)c(Cl)c4)cc3)cc2n1` [Compound 257, N-((1R,2R)-1-(3-chloro-4-cyclopropoxyphenyl)-1-hydroxy-3-(pyrrolidin-1-yl)propan-2-yl)-2-(4-(2-isopropyl-2H-indazol-6-yl)phenyl)-2-oxoacetamide], for which the 50% inhibitory concentration (IC50) is less than 50 nM.

On to `O=C(N[C@H](CN1CCCC1)[C@H](O)c1cc(F)c2c(c1)OCCO2)C(=O)c1ccc(-c2ccc(Cl)s2)cc1` [Compound 360, 2-(4-(5-chlorothiophen-2-yl)phenyl)-N-((1R,2R)-1-(8-fluoro-2,3-dihydrobenzo[b][1,4]dioxin-6-yl)-1-hydroxy-3-(pyrrolidin-1-yl)propan-2-yl)-2-oxoacetamide], for which the IC50 is less than 50 nM.

Turning to `COc1c(F)cc([C@@H](O)[C@@H](CN2CCCC2)NC(=O)C(=O)c2ccc(-c3ccc(F)cc3)cc2)cc1OC(C)C` [Compound 361, N-((1R,2R)-1-(3-fluoro-5-isopropoxy-4-methoxyphenyl)-1-hydroxy-3-(pyrrolidin-1-yl)propan-2-yl)-2-(4′-fluoro-[1,1′-biphenyl]-4-yl)-2-oxoacetamide], the IC50 lay within 50 to 5000 nM.

For `CC1(C)COc2c(F)cc([C@@H](O)[C@@H](CN3CCCC3)NC(=O)C(=O)c3ccc(-c4ccc(F)cc4)cc3)cc2O1` [Compound 362, N-((1R,2R)-1-(8-fluoro-3,3-dimethyl-2,3-dihydrobenzo[b][1,4]dioxin-6-yl)-1-hydroxy-3-(pyrrolidin-1-yl)propan-2-yl)-2-(4′-fluoro-[1,1′-biphenyl]-4-yl)-2-oxoacetamide], the IC50 was less than 50 nM.

For the compound `O=C(N[C@H](CN1CCCC1)[C@H](O)c1ccc(OC2CC2)c(Cl)c1)C(=O)c1ccc(-c2ccc(Cl)s2)cc1` [Compound 363, N-((1R,2R)-1-(3-chloro-4-cyclopropoxyphenyl)-1-hydroxy-3-(pyrrolidin-1-yl)propan-2-yl)-2-(4-(5-chlorothiophen-2-yl)phenyl)-2-oxoacetamide], the IC50 was less than 50 nM.

As to `COc1c(F)cc([C@@H](O)[C@@H](CN2CCCC2)NC(=O)C(=O)c2cc3ccc(Cl)cc3s2)cc1OC(C)C` [Compound 364, 2-(6-chlorobenzo[b]thiophen-2-yl)-N-((1R,2R)-1-(3-fluoro-5-isopropoxy-4-methoxyphenyl)-1-hydroxy-3-(pyrrolidin-1-yl)propan-2-yl)-2-oxoacetamide], the IC50 was 50 to 5000 nM.

For the compound `O=C(N[C@H](CN1CCCC1)[C@H](O)c1ccc(OC2CC2)c(Cl)c1)C(=O)c1cc2ccc(Cl)cc2o1` [Compound 365, N-((1R,2R)-1-(3-chloro-4-cyclopropoxyphenyl)-1-hydroxy-3-(pyrrolidin-1-yl)propan-2-yl)-2-(6-chlorobenzofuran-2-yl)-2-oxoacetamide], the IC50 is less than 50 nM.
